According to article PMC3390344, “Antibacterial Activity and Mechanism of a Scorpion Venom Peptide Derivative In Vitro and In Vivo” (PLoS ONE, 2012):
Ends that are not written are not given here.

What was measured:
B. thuringiensis AB92037 = assay: MIC, broth microdilution (CLSI); format: cell-based, Bacillus thuringiensis; settings: B. thuringiensis AB92037, Gram-positive, 96-well
Protocol: (§1) S. aureus AB94004, S. aureus ATCC 25923, E. coli AB94012, E. coli ATCC 25922, Pseudomonas aeruginosa AB93066, Bacillus thuringiensis AB92037, Bacillus subtilis AB91021, and Micrococcus luteus AB93113 were purchased from the China Center of Type Culture Collection (CCTCC).
(§2) The MIC was determined via a microdilution assay in 96-well microtiter plates according to the broth microdilution guideline of Clinical and Laboratory Standards Institute (CLSI).

M. luteus AB93113 = assay: MIC, broth microdilution (CLSI); format: cell-based, Micrococcus luteus; settings: M. luteus AB93113, Gram-positive, 96-well
Protocol: as §1, §2

E. coli ATCC 25922 = assay: MIC, broth microdilution (CLSI); format: cell-based; settings: E. coli ATCC 25922, Gram-negative, 96-well
Protocol: as §1, §2

S. aureus ATCC 25923 = assay: MIC, broth microdilution (CLSI); format: cell-based; settings: S. aureus ATCC 25923, Gram-positive, 96-well
Protocol: as §1, §2

P. aeruginosa A092994 = assay: MIC, broth microdilution (CLSI); format: cell-based, Pseudomonas aeruginosa; settings: P. aeruginosa A092994, clinical isolate
Protocol: (§3) Clinical isolated Pseudomonas aeruginosa strains A092994, A093052, A093056, A093085 and A093115 were obtained from Hubei Maternal and Child Health Hospital.
as §2

P. aeruginosa A093052 = assay: MIC, broth microdilution (CLSI); format: cell-based, Pseudomonas aeruginosa; settings: P. aeruginosa A093052, clinical isolate
Protocol: as §3, §2

P. aeruginosa A093056 = assay: MIC, broth microdilution (CLSI); format: cell-based, Pseudomonas aeruginosa; settings: P. aeruginosa A093056, clinical isolate
Protocol: as §3, §2

P. aeruginosa A093085 = assay: MIC, broth microdilution (CLSI); format: cell-based, Pseudomonas aeruginosa; settings: P. aeruginosa A093085, clinical isolate
Protocol: as §3, §2

P. aeruginosa A093115 = assay: MIC, broth microdilution (CLSI); format: cell-based, Pseudomonas aeruginosa; settings: P. aeruginosa A093115, clinical isolate
Protocol: as §3, §2

[1] = system: methicillin-resistant coagulase-negative Staphylococcus (MRCNS) P1369; assay: microbe, parasite or virus in culture; format: cell-based; settings: P1369, methicillin resistant (MRCNS) clinical isolate; repeated at least three times
Protocol: as §2

[2] = system: methicillin-resistant S. aureus (MRSA) P1374; assay: microbe, parasite or virus in culture; format: cell-based; settings: P1374, methicillin resistant (MRSA) clinical isolate; repeated at least three times
Protocol: (§4) Clinical isolates were obtained from the 302nd military hospital of Beijing, China, including penicillin-resistant S. aureus (PRSA) P1383, penicillin-resistant S. epidermidis (PRSE) P1389, methicillin-resistant S. aureus (MRSA) P1381, P1386 and P1374, methicillin-resistant coagulase-negative Staphylococcus (MRCNS) P1369, and penicillin-sensitive S. epidermidis (PSSE) P1111.
as §2

[3] = system: methicillin-resistant S. aureus (MRSA) P1381; assay: microbe, parasite or virus in culture; format: cell-based; settings: P1381, methicillin resistant (MRSA) clinical isolate; repeated at least three times
Protocol: as §4, §2

[4] = system: methicillin-resistant S. aureus (MRSA) P1386; assay: microbe, parasite or virus in culture; format: cell-based; settings: P1386, methicillin resistant (MRSA) clinical isolate; repeated at least three times
Protocol: as §4, §2

[5] = system: penicillin-resistant S. aureus (PRSA) P1383; assay: microbe, parasite or virus in culture; format: cell-based; settings: P1383, penicillin resistant (PRSA) clinical isolate; repeated at least three times
Protocol: as §4, §2

[6] = system: penicillin-resistant S. epidermidis (PRSE) P1389; assay: microbe, parasite or virus in culture; format: cell-based; settings: P1389, penicillin resistant (PRSE) clinical isolate; repeated at least three times
Protocol: as §4, §2

[7] = system: penicillin-sensitive S. epidermidis (PSSE) P1111; assay: microbe, parasite or virus in culture; format: cell-based; settings: P1111, penicillin sensitive (PSSE) clinical isolate; repeated at least three times
Protocol: as §4, §2

E. coli AB94012 [8] = assay: LTA and LPS competition binding assay (MIC); format: cell-based; settings: controls of the competition assay (Figure 7C): untreated peptide, or LTA / LPS alone
Protocol: To confirm the results of the BLI titrations, 250 µg/mL of Kn2-7 or BmKn2 was mixed with an equal volume of 1 mg/mL LTA or LPS. Then, the MICs of Kn2-7 or BmKn2 mixed with LTA against S. aureus and E. coli were measured. […] The MICs of Kn2-7 and BmKn2 treated with LTA against S. aureus were 25 and 12.5 µg/mL, respectively.
A total of 250 µg/mL of each peptide solution was mixed with an equal volume of 1 mg/mL of the LTA or LPS solution. Then, the MICs of BmKn2 and Kn2-7 treated with LTA or LPS against S. aureus AB94004 and E. coli AB94012 were measured.

E. coli AB94012 [9] = assay: Transmission electron microscopy; format: cell-based; settings: E. coli AB94012, 1×MIC, treated for 2 min, semi-thin sections
Protocol: (§5) Figure 6 Transmission electron microscopy of S. aureus and E. coli treated with Kn2-7. (A) Transmission electron microscopy was performed with Kn2-7-treated S. aureus. (A1), (A2) and (A3) were negative controls. (A4), (A5) and (A6) show S. aureus treated with Kn2-7 for 2 min. (A7), (A8) and (A9) show S. aureus treated with BmKn2 for 2 min. (B) Transmission electron microscopy was performed with Kn2-7-treated E. coli. (B1), (B2) and (B3) were the negative controls. (B4), (B5) and (B6) show E. coli treated with Kn2-7 for 2 min. (B7), (B8) and (B9) show E. coli treated with BmKn2 for 2 min.
(§6) Overnight-cultured S. aureus AB94004 and E. coli AB94012 were transferred to LB medium and cultured to the exponential phase. A 200 µl aliquot of the peptide solution was added to 800 µl of the bacterial suspensions at the final concentration of 1×MIC. The samples were cut into semi-thin sections. Microscopy was performed using a HITACHI H-8100 Transmission Electron Microscope.

S. aureus AB94004 = assay: Transmission electron microscopy; format: cell-based; settings: 1×MIC, treated for 2 min, semi-thin sections
Protocol: as §5, §6

HIV-1 = settings: by direct interaction with viral particle; cited from earlier work
Excerpt: In a previous study by our group, we characterized an antimicrobial peptide, BmKn2, derived from the venom of the scorpion Mesobuthus martensii Karsch. In the present study, a derivative of BmKn2, was designed to increase the antibacterial activity and reduce the hemolytic activity. […] In addit ...

Row | Substance | MIC (B. thuringiensis AB92037) | MIC (M. luteus AB93113) | MIC (E. coli ATCC 25922) | MIC (S. aureus ATCC 25923) | MIC (P. aeruginosa A092994) | MIC (P. aeruginosa A093052) | MIC (P. aeruginosa A093056) | MIC (P. aeruginosa A093085) | MIC (P. aeruginosa A093115) | MIC [1] | MIC [2] | MIC [3] | MIC [4] | MIC [5] | MIC [6] | MIC [7] | MIC E.coli, substance alone (E. coli AB94012 [8]) | Structural changes of cell wall and membrane (TEM) (E. coli AB94012 [9]) | Structural changes of cell wall and membrane (TEM) (S. aureus AB94004) | Inhibition of HIV-1 (HIV-1)
1 | FIGAIARLLSKIF-NH2 [BmKn2] | 12.5 µg/mL | 6.25 µg/mL | >100 µg/mL | 6.25 µg/mL | >100 µg/mL | >100 µg/mL | >100 µg/mL | >100 µg/mL | >100 µg/mL | 12.5 µg/mL | 12.5 µg/mL | 12.5 µg/mL | 12.5 µg/mL | 12.5 µg/mL | 12.5 µg/mL | 6.25 µg/mL | – | – | – | –
2 | FIKRIARLLRKIF [Kn2-7] | – | – | – | – | – | – | – | – | – | – | – | – | – | – | – | – | 6.25 µg/mL | formed microspheres that surrounded the bacteria | disrupted immediately | could inhibit HIV-1
